According to US6410483B1, “Phenylsulfonylureas, processes for their preparation, and their use as herbicides and plant growth regulators” (Hoechst Schering AgrEvo GmbH, priority 1997, dated 2002):

- melting point: 165 to 169 °C (dec.)
SMILES: COC(=O)NCCc1ccc(C(=O)OC)c(S(=O)(=O)NC(=O)Nc2nc(OC)cc(OC)n2)c1 [Example A5, Methyl 2-[(4,6-Dimethoxypyrimidin-2-yl)aminocarbonylaminosulfonyl]-4-[2-(methoxycarbonylamino)ethyl]benzoate]
